The values that follow are results of earlier work, collected in patent publication US20220323437A1, “METHODS FOR TREATING PULMONARY ARTERIAL HYPERTENSION” (ACTELION PHARMACEUTICALS LTD, priority 2019, published 2022).

The conditions of this data set: selexipag versus placebo; cited from earlier work.

Consider `CC(C)N(CCCCOCC(=O)NS(C)(=O)=O)c1cnc(-c2ccccc2)c(-c2ccccc2)n1` [selexipag, 2-{4-[(5,6-diphenylpyrazin-2-yl)(propan-2-yl)amino]butoxy}-N-(methanesulfonyl)acetamide], for which the “risk of the primary composite end point of death or a complication related to pulmonary arterial hypertension” value is “significantly lower”.
